Measured values: article PMC12040169 (PLOS Biology, 2025)

Test: in vitro
Settings: human, hela cells, % viability
COc1ccc(CC(=O)N2CCC(c3cc4cnccc4[nH]3)CC2)cc1 [CBK283451] showed a viability at 28.5 h, 10 µM of 87.2%.
In the case of O=C(Cc1ccc(F)cc1)N1CCC(c2cc3cnccc3[nH]2)CC1 [CBK283454], the viability at 28.5 h, 10 µM is reported as 85.7%.
Work on COc1cccc(CC(=O)N2CCC[C@@H](N)[C@@H]2c2ccccc2F)c1 [CBK283455] yielded a viability at 28.5 h, 10 µM of 84.5%.
Work on COc1ccc(CC(=O)N2CCC[C@@H](N)[C@@H]2c2ccccc2F)cc1 [CBK283456] yielded a viability at 28.5 h, 10 µM of 102%.
COc1cccc(C(=O)N2CCC[C@@H](N)[C@@H]2c2ccccc2F)c1 [CBK283457] showed a viability at 28.5 h, 10 µM of 88.1%.
With COc1c(C)cccc1C(=O)N1CCC(c2cc3cnccc3[nH]2)CC1 [CBK283460] the viability at 28.5 h, 10 µM was 89.9%.
With CC(C)(C)OC(=O)N1CCC[C@]2(CCC(=O)N2)[C@H]1c1cccc(F)c1 [CBK283463] the viability at 28.5 h, 10 µM was 96.7%.
Compound Cc1csc(C(=O)N2CCC(c3cc(O)cc(C)n3)CC2)c1 [CBK283466] has a viability at 28.5 h, 10 µM of 89%.
Work on CC(=O)Nc1ccc(Oc2cc(C)nc(C3CCNCC3)c2)cc1 [CBK283468] yielded a viability at 28.5 h, 10 µM of 86.5%.
For CN(C)Cc1cc(-c2ccc(CNC(=O)C3CC3)cc2)nn1C [CBK283470], the viability at 28.5 h, 10 µM was 80.5%.
In the case of CC(=O)NCCn1nc(-c2ccccc2F)cc1CN(C)C [CBK283473], the viability at 28.5 h, 10 µM is reported as 95.7%.
With CCCC(=O)NC[C@H]1CC[C@H](c2ccnc3cc(C)nn32)CC1 [CBK283474] the viability at 28.5 h, 10 µM was 102%.
For Cc1cc2nccc([C@H]3CC[C@H](CNC(=O)C(C)C)CC3)n2n1 [CBK283475], the viability at 28.5 h, 10 µM was 94.9%.
Compound CC(C)CN1C[C@H]2N(C)C(=O)c3ccccc3C(=O)[C@@]2(C)C1 [CBK283477] has a viability at 28.5 h, 10 µM of 86.6%.
CCN1C(=O)c2ccccc2C(=O)[C@@]2(C)CN(C)C[C@@H]12 [CBK283478] showed a viability at 28.5 h, 10 µM of 88.3%.
In the case of CCN1C(=O)c2ccccc2C(=O)[C@@]2(C)CN(C(C)C)C[C@@H]12 [CBK283480], the viability at 28.5 h, 10 µM is reported as 109%.
For CN1C(=O)c2ccccc2C(=O)[C@@]2(C)CN(CC(C)(C)C)C[C@@H]12 [CBK283481], the viability at 28.5 h, 10 µM was 93.8%.
With O=C(C1CCCO1)N1CCC(c2ccc(F)cc2)CC1 (stereo not shown) [CBK283484] the viability at 28.5 h, 10 µM was 81.4%.
Work on O=C1CC2(CCN(C(=O)C3CCCC3)CC2)Oc2ccccc21 [CBK283485] yielded a viability at 28.5 h, 10 µM of 94.9%.
CCC(=O)N1CCC2(CC1)Nc1ccccc1-n1cccc12 [CBK283488] gave a viability at 28.5 h, 10 µM of 108%.
O=C(c1cccs1)N1CCC2(CC1)Nc1ccccc1-n1cccc12 [CBK283489] gave a viability at 28.5 h, 10 µM of 99.3%.
OC1(c2ccc(F)cc2)CC2CCC(C1)N2Cc1ccccn1 (stereo not shown) [CBK283490] gave a viability at 28.5 h, 10 µM of 108%.
Compound CC(=O)NC1(c2ccc(F)cc2)CCN(C(=O)C(C)C)CC1 [CBK283491] has a viability at 28.5 h, 10 µM of 103%.
In the case of CC(=O)NC1(c2ccc(F)cc2)CCN(C(=O)C2CCC2)CC1 [CBK283492], the viability at 28.5 h, 10 µM is reported as 109%.
O=C1NC2=C(C(=O)N(CC3CCCO3)C2)C(c2ccccc2)N1 (stereo not shown) [CBK283494] showed a viability at 28.5 h, 10 µM of 100%.
Work on CCN(CC)C(=O)N1CCC2(CC1)CC(=O)c1ccccc1O2 [CBK283495] yielded a viability at 28.5 h, 10 µM of 105%.
Work on CCN(CC)C(=O)CN1CC=C(c2ccc(C)o2)CC1 [CBK283497] yielded a viability at 28.5 h, 10 µM of 100%.
c1coc(-c2nc3cnccn3c2NC2CCCCC2)c1 [CBK283498] showed a viability at 28.5 h, 10 µM of 93.6%.
CC(C)(C)NC(=O)CN1CCC(c2ccccc2F)CC1 [CBK283499] gave a viability at 28.5 h, 10 µM of 92.1%.
O=C(Cc1cccs1)N1CCC(O)(c2cccnc2)CC1 [CBK283501] showed a viability at 28.5 h, 10 µM of 104%.
In the case of O=C(c1cccnc1)C1CCN(C(=O)C2CCCC2)CC1 [CBK283508], the viability at 28.5 h, 10 µM is reported as 96.2%.
Compound COC(=O)[C@H]1CN(C(=O)c2ccncc2)C[C@@H]1c1ccc(F)cc1 [CBK283509] has a viability at 28.5 h, 10 µM of 94.2%.
In the case of COC(=O)[C@H]1CN(C(=O)c2cn(C)nc2C)C[C@@H]1c1ccccc1F [CBK283511], the viability at 28.5 h, 10 µM is reported as 88.2%.
Cc1oc(C2CC2)cc1C(=O)N1CCC(c2ccncc2)CC1 [CBK283514] showed a viability at 28.5 h, 10 µM of 95.2%.
Cc1ccc(C(C)C(=O)N2CCC(C(=O)c3cccnc3)CC2)cc1 (stereo not shown) [CBK283516] showed a viability at 28.5 h, 10 µM of 93.5%.
O=C(c1cccnc1)C1CCN(C(=O)Cc2ccsc2)CC1 [CBK283517] gave a viability at 28.5 h, 10 µM of 90.7%.
With COC(=O)[C@H]1CN(C(=O)CN2CCCC2=O)C[C@@H]1c1ccccc1F [CBK283518] the viability at 28.5 h, 10 µM was 89.2%.
Work on CCn1c(C(CC(C)C)NC(=O)c2ccco2)nc2cccnc21 (stereo not shown) [CBK283523] yielded a viability at 28.5 h, 10 µM of 94.3%.
With Cc1ccsc1-c1nc2cnccn2c1NC1CCCC1 [CBK283524] the viability at 28.5 h, 10 µM was 93.9%.
Compound CC(C)n1c(=O)n(CC(=O)N2CCCCC2)c2cccnc21 [CBK283526] has a viability at 28.5 h, 10 µM of 90.6%.
In the case of CC(C)n1c(=O)n(CC(=O)N2CCCCCC2)c2cccnc21 [CBK283527], the viability at 28.5 h, 10 µM is reported as 92.4%.
Compound O=C(c1cccnc1)C1CCN(C(=O)CC2CC3CCC2C3)CC1 (stereo not shown) [CBK283530] has a viability at 28.5 h, 10 µM of 95.1%.
Compound CC(C)n1c(=O)n(CCN2CCCC2)c2cccnc21 [CBK283532] has a viability at 28.5 h, 10 µM of 98.6%.
CCN(CC)C(=O)N1CCC(c2cccnc2)CC1 [CBK283535] gave a viability at 28.5 h, 10 µM of 99.9%.
Cn1ccnc1C1(O)CCN(C(=O)C2(c3ccccc3)CC2)CC1 [CBK283538] showed a viability at 28.5 h, 10 µM of 98.4%.
Work on Cn1ccnc1C1(O)CCN(C(=O)c2ccc(F)cc2)CC1 [CBK283541] yielded a viability at 28.5 h, 10 µM of 91.5%.
